Results published in patent US12364674B2, “Compounds and combinations thereof for treating neurological and psychiatric conditions” (priority 2022, dated 2025).
Counter-ions that a name gives are not always drawn. Like-named read-outs stand apart in the source and are kept apart here.

Legend:
[1] = human, in vivo
[2] = human, in vivo; remark: listed apart in the source
[3] = Example 2: pharmacokinetics of the subject combination in CYP2D6 poor metabolizers; conditions: 3 CYP2D6 poor metabolizers
Source text: Approximately 7 to 10% of Caucasians and 3 to 8% of African Americans lack the capacity to metabolize CYP2D6 substrates and are classified as poor metabolizers.

[4] = Example 3: co-administration of paroxetine and the subject combination in healthy volunteers
Source text: Co-administration of the SSRI paroxetine and the subject combination was studied in 29 healthy volunteers.

[5] = Example 1: subject combination in subjects with moderate renal impairment vs matched controls; conditions: moderate renal impairment (GFR 30-60 mL/min)
[6] = Steady-state pharmacokinetics of dextromethorphan, bupropion and metabolites after administration of the subject combination; conditions: for changes in AUC and Cmax with dose (dose proportionality): steady state, co-administered with bupropion
[7] = Example 4: exposure to the 45 mg dextromethorphan hydrobromide/105 mg bupropion hydrochloride tablet in moderate renal impairment (FIG. 1); conditions: 8 days of twice daily dosing of the tablet

## CC(NC(C)(C)C)C(=O)c1cccc(Cl)c1.Cl (racemic) [bupropion, (±)-1-(3-chlorophenyl)-2-[(1,1-dimethylethyl)amino]-1-propanone hydrochloride]
[1]
  increase of exposure vs matched controls with normal renal function: approximately 2 fold
  reduction of clearance vs matched controls with normal renal function: 50%
[2]
  increase in AUC0-12 (GMR vs matched healthy subjects): 1.80 fold
  increase in Cmax (GMR vs matched healthy subjects): 1.87 fold

## COc1ccc2c(c1)[C@]13CCCC[C@@H]1[C@H](C2)N(C)CC3 [dextromethorphan, morphinan, 3-methoxy-17-methyl-, (9α, 13α, 14α), hydrobromide monohydrate]
[3]
  increase in AUC0-12 compared to extensive metabolizers: ~3.4 fold
  increase in Cmax compared to extensive metabolizers: ~3 fold
[4]; 29 healthy volunteers, paroxetine with the subject combination
  change of overall exposure on co-administration of paroxetine: 2.5 fold
[5]
  reduction of clearance vs matched controls with normal renal function: 50%
[5]; 7 subjects vs 6 controls
  increase of exposure vs matched controls with normal renal function: approximately 2 fold
[6]; 8 days of administration of the subject combination, extensive metabolizers
  increase of mean elimination half-life compared to dextromethorphan given without bupropion: approximately 3 fold
[6]; varying doses of bupropion (75 to 150 mg)
  changes in AUC and Cmax with dose (dose proportionality): less than dose-proportional
[6]; varying doses of dextromethorphan (30 to 60 mg)
  changes in AUC and Cmax with dose (dose proportionality): greater than dose-proportional
[6]; subject combination
  mean elimination half-life: 22 h
[7]
  increase in AUC0-12 (GMR vs matched healthy subjects): 2.21 fold
  increase in Cmax (GMR vs matched healthy subjects): 2.10 fold

## Fc1ccc([C@@H]2CCNC[C@H]2COc2ccc3c(c2)OCO3)cc1 [paroxetine]
[4]; human, in vivo
  increase of overall exposure of paroxetine when co-administered with the subject combination: 1.2 fold
